Common to all, as to assay: DTP human tumour cell line panel, 48 h
The test system of assay [1] is OVCAR-5.
Assay [2] deals with HOP-62.
The test system of assay [3] is SNB-19.
Assay [4] relates to NCI-H23.
Assay [5] has as its system DU-145.
The subject of assay [6] is U-251.
In assay [7] the test system is SF-539.
The subject of assay [8] is SK-MEL-5.
The test system of assay [9] is CAKI-1.
Assay [10] deals with M14.
For assay [11], the system named is MOLT-4.
The subject of assay [12] is SK-MEL-2.
Assay [13] has as its system SR.
In assay [14] the test system is SNB-75.
For assay [15], the system named is MDA-MB-231.
Assay [16] relates to A549.
Assay [17] concerns HCT-116.
The test system of assay [18] is 786-0.
Assay [19] relates to MDA-N.

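1) Cells in 96-well plates. 2) Compound, 48 h, 5 concentrations. 3) Linear interpolation between surrounding doses. 4) Unreached endpoint = highest concentration. GI50 is the concentration that inhibits growth by half.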 The source made the active and inactive calls. Cut-off read from the data, not from the text of the source: active = GI50 up to about 1.1 µM and inactive = higher. Positions of bridges follow the written chain, without caps; N, C: chain ends. Non-standard residues stand in square brackets, D forms with d. Residues, ends and D or L forms follow the SMILES beside them. ξ: configuration not given here. *: point of attachment. X28 = O=C(/C=C/C=C/C=C/C=C/C=C/C(=O)*)NC1=C(O)CCC1=O; Pro(4R-Me) = C[C@H]1CN[C@H](C(=O)O)C1; NMeA = CN[C@@H](C)C(=O)O; ξF = NC(Cc1ccccc1)C(=O)O; ξA = CC(N)C(=O)O Bounds are passed on as bounds.

Usually GI50 stands for the concentration giving 50% growth inhibition. As for `O=C(O)c1ccc(C(=O)c2ccccc2C(=O)O)cc1C(=O)O`, the GI50 in [1], in assay [2], in assay [3], in assay [4], in assay [5] and in assay [6] was > 100 µM (inactive) each time. Moreover, the GI50 in [7], in assay [8], in [9], in assay [10], in assay [11] and in assay [12] was > 100 µM (inactive) each time. Further, the GI50 in assay [13], in [14], in assay [15], in assay [16], in [17] and in assay [18] was > 100 µM (inactive) in each case. In addition, the GI50 in [19] is > 100 µM (inactive).
As to `Oc1cccc2c(Br)ccnc12`, the GI50 in [1] was 6.08 µM (inactive); in assay [2], 8.73 µM (inactive); in [3] it was 7.71 µM (inactive); in [4], 3.94 µM (inactive); in [5], 3.89 µM (inactive); in assay [6] it was 2.28 µM (inactive). The GI50 was 3.63 µM (inactive) in assay [7]; 2.74 µM (inactive) in assay [8]; 12.3 µM (inactive) in [9]; 1.98 µM (inactive) in assay [10]; 0.855 µM (active) in [11]; 11.4 µM (inactive) in assay [12]. The GI50 in [13] is 0.378 µM (active); in [14] it was 7.59 µM (inactive); in assay [15], 2.75 µM (inactive); in assay [16], 4.34 µM (inactive); in [17], 1.4 µM (inactive); in assay [18], 17.1 µM (inactive). Further, the GI50 in assay [19] is 5.71 µM (inactive).
As for `NS(=O)(=O)c1ccc(NC(=O)c2ccc3nc4ccccc4c(Nc4ccc(S(N)(=O)=O)cc4)c3c2)cc1`, the GI50 was > 100 µM (inactive) in [1]; > 100 µM (inactive) in [2]; 42.1 µM (inactive) in [3]; > 100 µM (inactive) in [4]; > 100 µM (inactive) in assay [5]; 62.8 µM (inactive) in assay [6]. For the same compound, the GI50 in assay [7], in assay [8], in assay [9], in assay [10], in assay [11] and in [12] was > 100 µM (inactive) in each case. In addition, the GI50 in assay [13], in assay [14], in assay [15], in [16], in assay [17] and in [18] was > 100 µM (inactive) each time. In addition, in [19], the GI50 was > 100 µM (inactive).
With `C[C@]12CCC(=O)O[C@H]1CCCCO2`, the GI50 in assay [1], in assay [2], in [5], in assay [6], in assay [7] and in assay [8] was > 100 µM (inactive) each time. The GI50 was > 100 µM (inactive) in [9]; > 100 µM (inactive) in assay [10]; > 100 µM (inactive) in [11]; > 100 µM (inactive) in assay [12]; > 100 µM (inactive) in [13]; 87.5 µM (inactive) in [14]. Moreover, the GI50 in assay [15], in assay [16], in assay [17], in assay [18] and in assay [19] was > 100 µM (inactive) each time.
With `Cc1ccc(S(=O)(=O)Nc2nc3ccccc3c(=O)n2C2CCCCC2)cc1`, the GI50 in assay [1] was > 100 µM (inactive); in [2], > 100 µM (inactive); in assay [3] it was > 100 µM (inactive); in assay [4], > 100 µM (inactive); in assay [5], > 100 µM (inactive); in assay [6], 90.2 µM (inactive). Besides, the GI50 is > 100 µM (inactive) in assay [7]; > 100 µM (inactive) in [8]; 81.3 µM (inactive) in [9]; > 100 µM (inactive) in [10]; > 100 µM (inactive) in assay [11]; > 100 µM (inactive) in [12]. The GI50 was > 100 µM (inactive) in [13]; 53.1 µM (inactive) in assay [14]; 78.3 µM (inactive) in assay [15]; > 100 µM (inactive) in assay [16]; > 100 µM (inactive) in assay [17]; > 100 µM (inactive) in [18]. For the same compound, the GI50 in assay [19] is > 100 µM (inactive).
As for `CCOC(=O)c1cn2c(n1)sc1cc(C)c(C)cc12`, the GI50 is 16.8 µM (inactive) in assay [1]; 17.1 µM (inactive) in assay [2]; 20 µM (inactive) in [3]; 35.7 µM (inactive) in assay [4]; 21.4 µM (inactive) in assay [5]; 18.6 µM (inactive) in assay [6]. Moreover, the GI50 in [7] is 14.6 µM (inactive); in assay [8] it was 16.5 µM (inactive); in [9] it was 20.6 µM (inactive); in assay [10], 26.5 µM (inactive); in [11], 29 µM (inactive); in assay [12] it was 31.6 µM (inactive). The GI50 in assay [13] was 6.68 µM (inactive); in [14], 22.6 µM (inactive); in [15], 24.3 µM (inactive); in [16], 18.9 µM (inactive); in [17] it was 17.9 µM (inactive); in [18], 19 µM (inactive). For the same compound, the GI50 in assay [19] is 6.04 µM (inactive).
As to `O=C1CN(c2ccccc2)Cc2nc(Cl)ccc2N1`, the GI50 in assay [1], in assay [2], in [3], in assay [5], in assay [6] and in assay [7] was > 100 µM (inactive) in each case. Further, the GI50 in assay [8], in assay [9], in assay [10], in assay [11], in assay [12] and in assay [13] was > 100 µM (inactive) each time. The GI50 in assay [14] is 40.4 µM (inactive); in [15], > 100 µM (inactive); in assay [16], > 100 µM (inactive); in assay [17], > 100 µM (inactive); in [18], > 100 µM (inactive); in [19] it was > 100 µM (inactive).
For the compound `N#CC(c1ccnc(Cl)n1)c1nc2ccccc2s1` (stereo not drawn), the GI50 in [1] is 9.53 µM (inactive); in [2], 18.7 µM (inactive); in assay [3], 4.35 µM (inactive); in assay [4] it was 2.48 µM (inactive); in [5], 19.6 µM (inactive); in assay [6] it was 3.38 µM (inactive). Moreover, the GI50 in assay [7] was 3.88 µM (inactive); in [8] it was 1.33 µM (inactive); in assay [9], 3.87 µM (inactive); in [10] it was 3.76 µM (inactive); in assay [11], 3.55 µM (inactive); in assay [12], 3.52 µM (inactive). The GI50 in [13] was 3.03 µM (inactive); in assay [14], 2.36 µM (inactive); in [15], 2.91 µM (inactive); in assay [16], 8.59 µM (inactive); in assay [17], 2.58 µM (inactive); in assay [18], 3.78 µM (inactive). Moreover, the GI50 in [19] is 3.38 µM (inactive).
Regarding `Cc1ccc(-c2cc[n+]3c(n2)oc2ccccc23)cc1`, the GI50 was 39.7 µM (inactive) in assay [1]; 69.8 µM (inactive) in [3]; 39.9 µM (inactive) in [4]; 51.8 µM (inactive) in assay [5]; 36.7 µM (inactive) in assay [6]; 25.1 µM (inactive) in assay [7]. Also, the GI50 in assay [9] was 41.5 µM (inactive); in assay [10] it was 25.9 µM (inactive); in assay [11], 10.8 µM (inactive); in assay [12], 22.8 µM (inactive); in assay [13], 11 µM (inactive); in assay [14], 25 µM (inactive). Moreover, the GI50 is 75.2 µM (inactive) in assay [15]; 53.3 µM (inactive) in [16]; 29.8 µM (inactive) in assay [17]; 14.7 µM (inactive) in [18]; 31.6 µM (inactive) in assay [19].
Turning to `O=C(O)CCC(=O)c1ccc2ccc3cccc4ccc1c2c34`, the GI50 in [1] was > 100 µM (inactive); in assay [2], 84.5 µM (inactive); in assay [3], 92.9 µM (inactive); in assay [4], > 100 µM (inactive); in [5], > 100 µM (inactive); in [6] it was 48.5 µM (inactive). The GI50 in [7] was 27.7 µM (inactive); in [8], 58.6 µM (inactive); in [9], > 100 µM (inactive); in assay [10], > 100 µM (inactive); in [11], 60.3 µM (inactive); in [12], > 100 µM (inactive). For the same compound, the GI50 is 45.7 µM (inactive) in assay [13]; > 100 µM (inactive) in assay [14]; 64 µM (inactive) in assay [15]; 62.2 µM (inactive) in [16]; 65.8 µM (inactive) in assay [17]; 68.9 µM (inactive) in assay [18]. Further, in assay [19], the GI50 is > 100 µM (inactive).
Regarding `CC1NC(=O)[C@H](C)N(C)C(=O)[C@@H]2CCCN2C(=O)[C@@H](NC(=O)C(Cc2ccccc2)NC(=O)/C=C/C=C/C=C/C=C/C=C/C(=O)NC2=C(O)CCC2=O)COC(=O)[C@@H]2C[C@@H](C)CN2C1=O` (stereo partly drawn) (X28-[ξF]SP[NMeA][ξA][Pro(4R-Me)]; ester 2-C), the GI50 in [1], in [2], in assay [3], in [4], in assay [5] and in [6] was > 100 µM (inactive) throughout. Also, the GI50 in [7], in assay [8], in assay [9], in assay [10], in [12] and in [13] was > 100 µM (inactive) in each case. Also, the GI50 in [14], in [15], in assay [16], in assay [17], in assay [18] and in [19] was > 100 µM (inactive) throughout.

Source of the values: ChEMBL document CHEMBL1201862, “PubChem BioAssay data set” (2004).
